Results on one compound are retold here after EPA's ToxValDB 9.5 (doi:10.2903/j.efsa.2011.2162).

Converted amounts (≈) assume the structure as drawn.

In one data set the test system is Oncorhynchus mykiss. The settings on record: chronic/long-term; duration: 96 days; growth.
The subject of data set [1] is Aphidius rhopalosiphi. The settings on record: not reported; reproduction.
The next data set deals with Cyprinodon variegatus. The settings on record: acute; duration: 96 hours; mortality.
The test system of the next data set is Apis mellifera. The settings on record: acute; duration: 48 hours; dermal; mortality.
The test system of another data set is Coturnix japonica. The settings on record: acute; oral; diet; mortality.
The subject of the next data set is Tagia sp. The settings on record: acute; mortality.
For another data set, the system named is Lepomis macrochirus. The settings on record: acute; duration: 96 hours; mortality.
A further data set concerns Daphnia magna. The settings on record: chronic/long-term; duration: 21 days; reproduction.
Data set [2] deals with Aphidius rhopalosiphi. The data set can be described thus: LR50; higher = less toxic. The settings on record: acute; duration: 48 hours; mortality.
Where [3] appears, read: reproduction developmental, reproduction.

By NOAEL is commonly meant the highest dose or exposure tested at which no adverse effect was seen. Turning to `COP(=S)(OC)SCN1C(=O)c2ccccc2C1=O` [Phosmet], the NOEC in the data set on Oncorhynchus mykiss was 0.0032 mg/L; in the data set with Colinus virginianus (setting [3]) it was 7.5 mg/kg-day; in the data set on Daphnia magna, 0.00078 mg/L. Also, the LD50 was found to be 57 mg/kg in the data set with Colinus virginianus (acute, oral, mortality); 0.22 µg/piece in the data set with Apis mellifera; 113 mg/kg with Rattus norvegicus (acute, oral, mortality). Besides, the LEL in the data set on Aphidius rhopalosiphi [1] came to 1.41 g/ha. In addition, the LC50 with Cyprinodon variegatus is 0.17 µg/mL (≈ 0.536 µM); in the data set with Coturnix japonica, 406 mg/kg-day; in the data set with Tagia sp., 104 mg/kg; in the data set with Lepomis macrochirus, 0.0197 µg/mL (≈ 0.0621 µM). For the same compound, the no-observed-adverse-effect level (NOAEL) in the data set with Rattus norvegicus (acute, neurology) was found to be 4.5 mg/kg-day; in the data set with Rattus norvegicus (setting [3]), 1 mg/kg-day; in the data set on Rattus norvegicus (subchronic, duration: 13 weeks, neurology) it was 1.5 mg/kg-day; in the data set on Rattus norvegicus (subchronic, duration: 90 days, oral, other), 2 mg/kg-day. The compound further came in with an LR50 with Aphidius rhopalosiphi [2] of 1.95 g/ha.
